Experiments:
Becker = test: cells; assay type: functional, cell-based; settings: Homo sapiens;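 also: growth inhibition of Becker cells, read out with a cell viability assay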
Description: SANGER: Inhibition of human Becker cell growth in a cell viability assay.

CW-2 = test: cells; assay type: functional, cell-based; settings: Homo sapiens;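 also: growth inhibition of CW-2 cells, read out by a cell viability assay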
Description: SANGER: Inhibition of human CW-2 cell growth in a cell viability assay.

RXF 393 = test: cells; assay type: functional, cell-based; settings: Homo sapiens;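 also: growth inhibition of human RXF 393 cells, read out with a cell viability assay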
Description: SANGER: Inhibition of human RXF393 cell growth in a cell viability assay.

NCI-H1299 = test: cells; assay type: functional, cell-based; settings: Homo sapiens;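 also: growth inhibition of human NCI-H1299 cells, read out by a cell viability assay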
Description: SANGER: Inhibition of human NCI-H1299 cell growth in a cell viability assay.

IGROV-1 = test: cells; assay type: functional, cell-based; settings: Homo sapiens;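 also: reduction of IGROV-1 cell growth, read out with a viability assay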
Description: SANGER: Inhibition of human IGROV-1 cell growth in a cell viability assay.

BCPAP = test: cells; assay type: functional, cell-based; settings: Homo sapiens;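 also: growth inhibition of BCPAP cells, read out in a cell viability assay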
Description: SANGER: Inhibition of human BCPAP cell growth in a cell viability assay.

JAR = test: cells; assay type: functional, cell-based; settings: Homo sapiens;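 also: growth inhibition of human JAR cells determined with a cell viability assay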
Description: SANGER: Inhibition of human JAR cell growth in a cell viability assay.

U-266 = test: cells; assay type: functional, cell-based; settings: Homo sapiens
Description: SANGER: Inhibition of human U-266 cell growth in a cell viability assay.

MFH-ino = test: cells; assay type: functional, cell-based; settings: Homo sapiens;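 also: growth inhibition of human MFH-ino cells, read out by a cell viability assay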
Description: SANGER: Inhibition of human MFH-ino cell growth in a cell viability assay.

COLO-829 = test: cells; assay type: functional, cell-based; settings: Homo sapiens
Description: SANGER: Inhibition of human COLO-829 cell growth in a cell viability assay.

A4-Fuk = test: cells; assay type: functional, cell-based; settings: Homo sapiens;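 also: growth inhibition of A4-Fuk cells, read out by a cell viability assay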
Description: SANGER: Inhibition of human A4-Fuk cell growth in a cell viability assay.

NKM-1 = test: cells; assay type: functional, cell-based; settings: Homo sapiens;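 also: growth inhibition of NKM-1 cells, read out with a cell viability assay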
Description: SANGER: Inhibition of human NKM-1 cell growth in a cell viability assay.

GT3TKB = test: cells; assay type: functional, cell-based; settings: Homo sapiens;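 also: growth inhibition of the cell line, read out with a cell viability assay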
Description: SANGER: Inhibition of human GT3TKB cell growth in a cell viability assay.

COLO-320-HSR = test: cells; assay type: functional, cell-based; settings: Homo sapiens;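 also: growth inhibition of COLO-320-HSR cells, determined with a cell viability assay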
Description: SANGER: Inhibition of human COLO-320-HSR cell growth in a cell viability assay.

NCI-H1395 = test: cells; assay type: functional, cell-based; settings: Homo sapiens;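 also: cell viability assay read-out quantifying reduced proliferation of human NCI-H1395 cells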
Description: SANGER: Inhibition of human NCI-H1395 cell growth in a cell viability assay.

NCI-H720 = test: cells; assay type: functional, cell-based; settings: Homo sapiens;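 also: growth inhibition of human NCI-H720 cells determined by a cell viability assay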
Description: SANGER: Inhibition of human NCI-H720 cell growth in a cell viability assay.

MEG-01 = test: cells; assay type: functional, cell-based; settings: Homo sapiens;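 also: growth inhibition of MEG-01 cells, read out by a cell viability assay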
Description: SANGER: Inhibition of human MEG-01 cell growth in a cell viability assay.

IST-SL1 = test: cells; assay type: functional, cell-based; settings: Homo sapiens;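 also: growth inhibition of human IST-SL1 cells, read out with a cell viability assay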
Description: SANGER: Inhibition of human IST-SL1 cell growth in a cell viability assay.

VA-ES-BJ = test: cells; assay type: functional, cell-based; settings: Homo sapiens;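 also: growth inhibition of the VA-ES-BJ cell line, read out by a cell viability assay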
Description: SANGER: Inhibition of human VA-ES-BJ cell growth in a cell viability assay.

BB49-HNC = test: cells; assay type: functional, cell-based; settings: Homo sapiens;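 also: cell viability assay read-out, reported as inhibition of BB49-HNC cell growth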
Description: SANGER: Inhibition of human BB49-HNC cell growth in a cell viability assay.

LU-134-A = test: cells; assay type: functional, cell-based; settings: Homo sapiens
Description: SANGER: Inhibition of human LU-134-A cell growth in a cell viability assay.

MZ2-MEL = test: cells; assay type: functional, cell-based; settings: Homo sapiens;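 also: growth inhibition of MZ2-MEL cells read out with a cell viability assay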
Description: SANGER: Inhibition of human MZ2-MEL cell growth in a cell viability assay.

DoTc2-4510 = test: cells; assay type: functional, cell-based; settings: Homo sapiens
CP66-MEL = test: cells; assay type: functional, cell-based; settings: Homo sapiens;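 also: growth inhibition of CP66-MEL cells determined in a cell viability assay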
Description: SANGER: Inhibition of human CP66-MEL cell growth in a cell viability assay.

MKN-45 = test: cells; assay type: functional, cell-based; settings: Homo sapiens;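 also: growth inhibition of human MKN-45 cells, measured with a cell viability assay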
Description: SANGER: Inhibition of human MKN45 cell growth in a cell viability assay.

DJM-1 = test: cells; assay type: functional, cell-based; settings: Homo sapiens;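 also: growth inhibition of human DJM-1 cells, read out by a cell viability assay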
Description: SANGER: Inhibition of human DJM-1 cell growth in a cell viability assay.

BV-173 = test: cells; assay type: functional, cell-based; settings: Homo sapiens
Description: SANGER: Inhibition of human BV-173 cell growth in a cell viability assay.

MIA PaCa-2 = test: cells; assay type: functional, cell-based; settings: Homo sapiens;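 also: growth inhibition of MIA PaCa-2 cells, read out with a cell viability assay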
Description: SANGER: Inhibition of human MIA-PaCa-2 cell growth in a cell viability assay.

MV4-11 = test: cells; assay type: functional, cell-based, MV-4-11; settings: Homo sapiens;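 also: cell viability readout measuring growth inhibition of human MV-4-11 cells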
Description: SANGER: Inhibition of human MV-4-11 cell growth in a cell viability assay.

L-363 = test: cells; assay type: functional, cell-based; settings: Homo sapiens
Description: SANGER: Inhibition of human L-363 cell growth in a cell viability assay.

RPMI-2650 = test: cells; assay type: functional, cell-based; settings: Homo sapiens
Description: SANGER: Inhibition of human RPMI-2650 cell growth in a cell viability assay.

ACN = test: cells; assay type: functional, cell-based; settings: Homo sapiens;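 also: growth inhibition of the human ACN cell line, read out via cell viability testing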
Description: SANGER: Inhibition of human ACN cell growth in a cell viability assay.

NCI-H2126 = test: cells; assay type: functional, cell-based; settings: Homo sapiens;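 also: growth inhibition of the cancer cell line, determined with a cell viability readout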
Description: SANGER: Inhibition of human NCI-H2126 cell growth in a cell viability assay.

NCI-H1581 = test: cells; assay type: functional, cell-based; settings: Homo sapiens;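 also: cell growth inhibition read out by a viability assay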
Description: SANGER: Inhibition of human NCI-H1581 cell growth in a cell viability assay.

NB13 = test: cells; assay type: functional, cell-based; settings: Homo sapiens;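 also: cell viability readout measuring growth inhibition of human NB13 cells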
Description: SANGER: Inhibition of human NB13 cell growth in a cell viability assay.

KY821 = test: cells; assay type: functional, cell-based; settings: Homo sapiens;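 also: growth inhibition of human KY821 cells, read out by a cell viability assay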
Description: SANGER: Inhibition of human KY821 cell growth in a cell viability assay.

HL-60 = test: cells; assay type: functional, cell-based; settings: Homo sapiens;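 also: growth inhibition of human HL-60 cells, read out with a cell viability assay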
Description: SANGER: Inhibition of human HL-60 cell growth in a cell viability assay.

P30-OHK = test: cells; assay type: functional, cell-based; settings: Homo sapiens;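 also: growth inhibition of the P30-OHK cell line, read out with a cell viability assay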
Description: SANGER: Inhibition of human P30-OHK cell growth in a cell viability assay.

TGBC24TKB = test: cells; assay type: functional, cell-based; settings: Homo sapiens;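 also: growth inhibition of human TGBC24TKB cells, read out with a cell viability assay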
Description: SANGER: Inhibition of human TGBC24TKB cell growth in a cell viability assay.

LS-411N = test: cells; assay type: functional, cell-based; settings: Homo sapiens
BB65-RCC = test: cells; assay type: functional, cell-based; settings: Homo sapiens;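 also: growth inhibition of the cell line, measured with a cell viability assay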
Description: SANGER: Inhibition of human BB65-RCC cell growth in a cell viability assay.

SK-LMS-1 = test: cells; assay type: functional, cell-based; settings: Homo sapiens;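 also: growth inhibition of human SK-LMS-1 cells, read out with a cell viability assay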
Description: SANGER: Inhibition of human SK-LMS-1 cell growth in a cell viability assay.

IM-9 = test: SANGER: Inhibition of human IM-9 cell growth in a cell viability assay.; assay type: functional, cell-based
MOLT-16 = test: cells; assay type: functional, cell-based; settings: Homo sapiens;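 also: growth inhibition of human MOLT-16 cells, read out with a cell viability assay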
Description: SANGER: Inhibition of human MOLT-16 cell growth in a cell viability assay.

A-431 = test: cells; assay type: functional, cell-based; settings: Homo sapiens;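 also: growth inhibition of A-431 cells, determined with a cell viability read-out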
Description: SANGER: Inhibition of human A431 cell growth in a cell viability assay.

SW982 = test: cells; assay type: functional, cell-based; settings: Homo sapiens;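 also: growth inhibition of SW982 cells, read out with a cell viability assay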
Description: SANGER: Inhibition of human SW982 cell growth in a cell viability assay.

DEL = test: cells; assay type: functional, cell-based; settings: Homo sapiens;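 also: growth inhibition of the human DEL cell line, read out with a cell viability assay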
Description: SANGER: Inhibition of human DEL cell growth in a cell viability assay.

ES4 = test: cells; assay type: functional, cell-based; settings: Homo sapiens;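 also: growth inhibition of human ES4 cells, read out by a cell viability assay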
Description: SANGER: Inhibition of human ES4 cell growth in a cell viability assay.

LS-123 = test: cells; assay type: functional, cell-based; settings: Homo sapiens
Description: SANGER: Inhibition of human LS-123 cell growth in a cell viability assay.

LU-165 = test: cells; assay type: functional, cell-based; settings: Homo sapiens
Description: SANGER: Inhibition of human LU-165 cell growth in a cell viability assay.

ALL-PO = test: cells; assay type: functional, cell-based; settings: Homo sapiens;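 also: growth inhibition of ALL-PO cells, read out by a cell viability assay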
Description: SANGER: Inhibition of human ALL-PO cell growth in a cell viability assay.

NB69 = test: cells; assay type: functional, cell-based; settings: Homo sapiens;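 also: growth inhibition of NB69 cells, determined by a cell viability assay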
Description: SANGER: Inhibition of human NB69 cell growth in a cell viability assay.

LB2241-RCC = test: cells; assay type: functional, cell-based; settings: Homo sapiens;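 also: cell viability assay measuring how strongly the cultured human renal carcinoma line is prevented from growing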
Description: SANGER: Inhibition of human LB2241-RCC cell growth in a cell viability assay.

MOLT-4 = test: cells; assay type: functional, cell-based; settings: Homo sapiens;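 also: growth inhibition of MOLT-4 cells, determined with a cell viability readout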
Description: SANGER: Inhibition of human MOLT-4 cell growth in a cell viability assay.

GB-1 = test: cells; assay type: functional, cell-based; settings: Homo sapiens;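 also: growth of GB-1 cells judged by a viability assay, IC50 marks the concentration inhibiting growth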
Description: SANGER: Inhibition of human GB-1 cell growth in a cell viability assay.

LB831-BLC = test: cells; assay type: functional, cell-based; settings: Homo sapiens;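 also: growth inhibition of LB831-BLC cells, read out with a cell viability assay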
Description: SANGER: Inhibition of human LB831-BLC cell growth in a cell viability assay.

A204 = test: cells; assay type: functional, cell-based; settings: Homo sapiens;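 also: growth inhibition of human A204 cells, read out with a cell viability assay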
Description: SANGER: Inhibition of human A204 cell growth in a cell viability assay.

EM-2 = test: cells; assay type: functional, cell-based; settings: Homo sapiens;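 also: growth inhibition of EM-2 cells, read out with a cell viability assay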
Description: SANGER: Inhibition of human EM-2 cell growth in a cell viability assay.

RS4-11 = test: cells; assay type: functional, cell-based; settings: Homo sapiens;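 also: growth inhibition of RS4-11 cells, read out by a cell viability assay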
Description: SANGER: Inhibition of human RS4-11 cell growth in a cell viability assay.

EW-18 = test: cells; assay type: functional, cell-based; settings: Homo sapiens;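 also: growth inhibition of EW-18 cells, read out by a cell viability assay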
Description: SANGER: Inhibition of human EW-18 cell growth in a cell viability assay.

KM12 = test: cells; assay type: functional, cell-based; settings: Homo sapiens
Description: SANGER: Inhibition of human KM12 cell growth in a cell viability assay.

NCI-H526 = test: cells; assay type: functional, cell-based; settings: Homo sapiens
Description: SANGER: Inhibition of human NCI-H526 cell growth in a cell viability assay.

NCI-H1651 = test: cells; assay type: functional, cell-based; settings: Homo sapiens
Description: SANGER: Inhibition of human NCI-H1651 cell growth in a cell viability assay.

GI-ME-N = test: cells; assay type: functional, cell-based; settings: Homo sapiens
Description: SANGER: Inhibition of human GI-ME-N cell growth in a cell viability assay.

HH = test: cells; assay type: functional, cell-based; settings: Homo sapiens
Description: SANGER: Inhibition of human HH cell growth in a cell viability assay.

With `CC(C)=CC[C@@H](O)C1=CC(=O)c2c(O)ccc(O)c2C1=O` [SHIKONIN] the IC50 (Becker) was 1580 nM, the IC50 (CW-2) was over 16 µM and the IC50 (RXF 393) was 749 nM. The IC50 (NCI-H1299) was 1070 nM, the IC50 (IGROV-1) was 55.6 nM and the IC50 (BCPAP) was 923 nM. It also gave an IC50 (JAR) of 3.26 µM, an IC50 (U-266) of 675 nM and an IC50 (MFH-ino) of 864 nM. It also gave an IC50 (COLO-829) of 658 nM, an IC50 (A4-Fuk) of 250 nM and an IC50 (NKM-1) of 101 nM. For the same compound, the IC50 (GT3TKB) was 346 nM, the IC50 (COLO-320-HSR) was 384 nM and the IC50 (NCI-H1395) was over 16000 nM. It also gave an IC50 (NCI-H720) of over 16 µM, an IC50 (MEG-01) of 451 nM and an IC50 (IST-SL1) of over 16000 nM. It also gave an IC50 (VA-ES-BJ) of 401 nM, an IC50 (BB49-HNC) of over 16 µM and an IC50 (LU-134-A) of 810 nM. It also gave an IC50 (MZ2-MEL) of 385 nM, an IC50 (DoTc2-4510) of 263 nM and an IC50 (CP66-MEL) of 2400 nM. For the same compound, the IC50 (MKN-45) was 608 nM, the IC50 (DJM-1) was 6.39 µM and the IC50 (BV-173) was 436 nM. The IC50 (MIA PaCa-2) was 276 nM, the IC50 (MV4-11) was 274 nM and the IC50 (L-363) was over 16000 nM. The IC50 (RPMI-2650) was 375 nM, the IC50 (ACN) was 917 nM and the IC50 (NCI-H2126) was 15.6 µM. It also gave an IC50 (NCI-H1581) of over 16000 nM, an IC50 (NB13) of 317 nM and an IC50 (KY821) of 747 nM. For the same compound, the IC50 (HL-60) was 1920 nM, the IC50 (P30-OHK) was 220 nM and the IC50 (TGBC24TKB) was over 16 µM. For the same compound, the IC50 (LS-411N) was 3190 nM, the IC50 (BB65-RCC) was 695 nM and the IC50 (SK-LMS-1) was 108 nM. It also gave an IC50 (IM-9) of 3.41 µM, an IC50 (MOLT-16) of 2760 nM and an IC50 (A-431) of 107 nM. It also gave an IC50 (SW982) of 60.2 nM, an IC50 (DEL) of 154 nM and an IC50 (ES4) of 4.63 µM. For the same compound, the IC50 (LS-123) was 538 nM, the IC50 (LU-165) was 634 nM and the IC50 (ALL-PO) was 315 nM. The IC50 (NB69) was 213 nM, the IC50 (LB2241-RCC) was 1290 nM and the IC50 (MOLT-4) was 410 nM. The IC50 (GB-1) was 1330 nM, the IC50 (LB831-BLC) was 1920 nM and the IC50 (A204) was 127 nM. The IC50 (EM-2) was 977 nM, the IC50 (RS4-11) was 417 nM and the IC50 (EW-18) was 529 nM. It also gave an IC50 (KM12) of 740 nM, an IC50 (NCI-H526) of 2640 nM and an IC50 (NCI-H1651) of over 16000 nM. The IC50 (GI-ME-N) was 552 nM and the IC50 (HH) was 1120 nM.
Compound `C/C=C(/C)C(=O)O[C@H]1C(C)=C2[C@H]([C@@H]1OC(=O)CCCCCCC)[C@@](C)(OC(C)=O)C[C@H](OC(=O)CCC)[C@@]1(O)[C@H]2OC(=O)[C@@]1(C)O` [THAPSIGARGIN] has an IC50 (Becker) of 135 nM, an IC50 (CW-2) of over 0.512 µM and an IC50 (RXF 393) of over 512 nM. For the same compound, the IC50 (NCI-H1299) was 0.879 nM, the IC50 (IGROV-1) was under 2 nM and the IC50 (BCPAP) was under 2 nM. The IC50 (JAR) was over 0.512 µM, the IC50 (U-266) was 2.91 nM and the IC50 (MFH-ino) was 1.32 nM. It also gave an IC50 (COLO-829) of 29.8 nM, an IC50 (A4-Fuk) of under 2 nM and an IC50 (NKM-1) of 6.12 nM. It also gave an IC50 (GT3TKB) of 12.2 nM, an IC50 (COLO-320-HSR) of 48 nM and an IC50 (NCI-H1395) of 176 nM. For the same compound, the IC50 (NCI-H720) was over 0.512 µM, the IC50 (MEG-01) was 10.8 nM and the IC50 (IST-SL1) was 24.2 nM. It also gave an IC50 (VA-ES-BJ) of 18.2 nM, an IC50 (BB49-HNC) of over 0.512 µM and an IC50 (LU-134-A) of 93.3 nM. The IC50 (MZ2-MEL) was 1.79 nM, the IC50 (DoTc2-4510) was 12.4 nM and the IC50 (CP66-MEL) was 3.6 nM. It also gave an IC50 (MKN-45) of 25.4 nM, an IC50 (DJM-1) of 0.0547 µM and an IC50 (BV-173) of 2.81 nM. For the same compound, the IC50 (MIA PaCa-2) was 3.3 nM, the IC50 (MV4-11) was 11 nM and the IC50 (L-363) was 0.833 nM. For the same compound, the IC50 (RPMI-2650) was 2.74 nM, the IC50 (ACN) was 4.69 nM and the IC50 (NCI-H2126) was 0.0793 µM. For the same compound, the IC50 (NCI-H1581) was 0.55 nM, the IC50 (NB13) was 9.45 nM and the IC50 (KY821) was 0.636 nM. For the same compound, the IC50 (HL-60) was over 512 nM, the IC50 (P30-OHK) was 2.08 nM and the IC50 (TGBC24TKB) was under 0.002 µM. The IC50 (LS-411N) was 13.6 nM, the IC50 (BB65-RCC) was 5.08 nM and the IC50 (SK-LMS-1) was under 2 nM. It also gave an IC50 (IM-9) of over 0.512 µM, an IC50 (MOLT-16) of 4.52 nM and an IC50 (A-431) of 4.11 nM. It also gave an IC50 (SW982) of under 2 nM, an IC50 (DEL) of 10.3 nM and an IC50 (ES4) of under 0.002 µM. The IC50 (LS-123) was 6.23 nM, the IC50 (LU-165) was over 512 nM and the IC50 (ALL-PO) was 16.3 nM. For the same compound, the IC50 (NB69) was 0.873 nM, the IC50 (LB2241-RCC) was 66 nM and the IC50 (MOLT-4) was 39.5 nM. For the same compound, the IC50 (GB-1) was 114 nM, the IC50 (LB831-BLC) was 3.94 nM and the IC50 (A204) was 17.3 nM. It also gave an IC50 (EM-2) of 55.4 nM, an IC50 (RS4-11) of 1.3 nM and an IC50 (EW-18) of 2.11 nM. For the same compound, the IC50 (KM12) was 13.4 nM, the IC50 (NCI-H526) was 34 nM and the IC50 (NCI-H1651) was 41.3 nM. The IC50 (GI-ME-N) was 18.2 nM and the IC50 (HH) was 95.9 nM.

— ChEMBL document CHEMBL1201861, “Genomics of Drug Sensitity in Cancer screening data, Wellcome Trust Sanger Institute”
